# Measurements taken from patent US20250074910A1, “MENIN INHIBITOR AND USE THEREOF” (HITGEN INC., priority 2021, published 2025).
# Legend:
# [1] = Stability in dog liver microsomes; type: in vitro ADME; details: Dog; 0.5 mg/mL microsomal protein, 1.00 μM compound, NADPH
# Experimental: (§1) Test Example 3: Test of Stability of Compounds in Liver Microsome
# (§2) Test purpose: To determine the stability of some of the compounds of the present disclosure in mouse, dog and human liver microsomes by LC-MS/MS method.
# (§3) Test materials: The test drugs were in-house prepared example compounds of the present disclosure; the positive reference compound SNDX-5613 was prepared by the method of Example 253 in patent WO2017214367; the control compound 1 was prepared by the method of Example 64 in WO2017214367; liver microsomes were purchased from CORNING.
# (§4) The total volume of each incubation system was approximately 45 μL, and the medium was 100 mM phosphate buffer (PBS, pH 7.4), including liver microsomal protein at a final concentration of 0.5 mg/mL, 1.00 μM compound and 2.00 mM NADPH, and the organic phase content was <1%. Incubation was performed in a 37° C. incubator, and 135 μL of ice-cold acetonitrile was added after 0, 5, 15, 30 and 60 min of reaction to terminate the reaction. The positive control group was incubated with 1.00 μM Ketanserin, 0.5 mg/mL liver microsomal protein and 2.00 mM NADPH in a 37° C. incubator for 0, 5, 15, 30 and 60 min respectively, and then 135 μL of ice-cold acetonitrile was added to terminate the reaction. The 96-well plates were shaken at 600 rpm for 10 min and then centrifuged at 4700 rpm at 4° C. for 15 min. 80 μL of supernatant was mixed with 320 μL of pure water, and the remaining amount of the compound was detected by LC-MS/MS method. The in vitro half life (T½) and intrinsic clearance (CLint) were calculated according to the following formula:
# (§5) Intrinsic clearance (Clint)=(0.693/T1/2)×(1/liver microsome concentration)×conversion factor. k is the linear regression slope of the remaining percentage of the ln compound-incubation time.
# [2] = Stability in human liver microsomes; type: in vitro ADME; details: Human; 0.5 mg/mL microsomal protein, 1.00 μM compound, NADPH
# Experimental: as §1, §2, §3, §4, §5
# [3] = target: hERG potassium ion channel (Homo sapiens (Human), UniProt Q12809); details: reported value of the positive reference compound; cited from earlier work
# Chain of hERG potassium ion channel (Q12809 whole entry): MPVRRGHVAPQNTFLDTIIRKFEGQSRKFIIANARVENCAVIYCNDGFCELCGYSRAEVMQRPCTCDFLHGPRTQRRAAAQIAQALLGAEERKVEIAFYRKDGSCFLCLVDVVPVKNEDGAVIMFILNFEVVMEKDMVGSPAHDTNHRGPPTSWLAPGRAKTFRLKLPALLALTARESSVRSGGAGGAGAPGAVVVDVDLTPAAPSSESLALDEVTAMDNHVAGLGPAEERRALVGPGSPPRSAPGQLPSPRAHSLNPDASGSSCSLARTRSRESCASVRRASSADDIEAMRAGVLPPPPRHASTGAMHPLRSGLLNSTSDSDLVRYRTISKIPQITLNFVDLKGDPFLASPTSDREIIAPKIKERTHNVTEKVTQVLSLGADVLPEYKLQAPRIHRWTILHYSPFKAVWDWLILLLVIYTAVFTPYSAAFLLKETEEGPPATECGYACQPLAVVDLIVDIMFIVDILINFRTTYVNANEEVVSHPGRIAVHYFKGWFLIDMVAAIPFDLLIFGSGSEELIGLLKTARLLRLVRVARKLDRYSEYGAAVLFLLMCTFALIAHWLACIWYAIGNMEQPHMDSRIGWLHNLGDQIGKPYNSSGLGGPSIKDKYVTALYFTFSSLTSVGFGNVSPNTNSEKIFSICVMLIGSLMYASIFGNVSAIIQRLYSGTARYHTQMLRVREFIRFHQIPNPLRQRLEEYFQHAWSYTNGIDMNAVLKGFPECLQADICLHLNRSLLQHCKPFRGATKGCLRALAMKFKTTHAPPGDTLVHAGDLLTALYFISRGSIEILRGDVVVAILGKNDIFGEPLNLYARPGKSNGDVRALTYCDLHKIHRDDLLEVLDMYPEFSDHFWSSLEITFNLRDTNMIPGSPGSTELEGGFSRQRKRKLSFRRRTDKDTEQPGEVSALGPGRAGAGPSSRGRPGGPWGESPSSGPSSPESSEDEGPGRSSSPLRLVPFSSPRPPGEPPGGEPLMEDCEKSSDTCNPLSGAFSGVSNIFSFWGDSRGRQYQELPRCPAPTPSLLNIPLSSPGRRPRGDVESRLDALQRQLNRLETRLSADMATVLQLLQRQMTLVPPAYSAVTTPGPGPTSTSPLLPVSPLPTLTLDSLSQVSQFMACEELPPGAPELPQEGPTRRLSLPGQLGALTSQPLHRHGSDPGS
# [4] = Pharmacokinetics test in mouse; type: in vivo, ICR mice; details: mice, p.o. 10 mg/kg
# Method in brief: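 Fasted male ICR mice dosed with compound in saline with 1.5 eq HCl, 1 mg/kg i.v. or 10 mg/kg oral gavage (6 mice each). Plasma sampled 5 min–24 h, measured by LC-MS/MS; t½, Cmax, AUC, CL and F% by non-compartmental analysis, mean±SD.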
# [5] = Stability in mouse liver microsomes; type: in vitro ADME; details: 0.5 mg/mL microsomal protein, 1.00 μM compound, NADPH
# Experimental: as §1, §2, §3, §4, §5
structure (smiles),measurement,setting,value
"CCN(C(=O)c1cc(F)ccc1Oc1cncnc1N1CC2(CCN(C[C@H]3CC[C@H](NS(=O)(=O)CC)CC3)CC2)C1)C(C)C [SNDX-5613, reference compound]","Half life T1/2, dog liver microsomes",[1],1.05 h
same,"Half life T1/2, human liver microsomes",[2],0.1998 h
same,IC50,[3],5 to 15 µM
same,AUClast,[4],2483 ng·h/mL
same,Cmax,[4],1296 ng/mL
same,T1/2,[4],1.53 h
same,"F, %",[4]; 1 mg/kg for intravenous injection,88%
same,"Half life T1/2, mouse liver microsomes",[5],1.178 h
